# Source: ChEMBL document CHEMBL5260828, “Amphiphilic glycoconjugates as potential anti-cancer chemotherapeutics” (Eur J Med Chem, 2018)
# pIC50: −log10 of the molar value.
# How the values were obtained:
# K562 = experiment: Cytotoxicity against human K562 cells by colorimetric assay; assay type: functional, cell-based
# P388 = experiment: Cytotoxicity against mouse P388 cells; assay type: functional, cell-based; conditions: Mus musculus, P388; read-out: IC50
# HeLa S3 = experiment: Cytotoxicity against human HeLa S3 cells; assay type: functional, cell-based; conditions: Homo sapiens, HeLa S3; read-out: IC50
# A549 = experiment: Cytotoxicity against human A549 cells incubated for 72 hrs by MTT assay; assay type: functional, cell-based; conditions: A549, 72 h
# DU-145 = experiment: Cytotoxicity against human DU-145 cells assessed as reduction in cell viability incubated for 48 hrs by MTS assay; assay type: functional, cell-based; conditions: DU-145, time 48 hrs
# JIMT-1 = experiment: Cytotoxicity against human JIMT-1 cells assessed as reduction in cell viability incubated for 48 hrs by MTS assay; assay type: functional, cell-based; conditions: JIMT-1, time 48 hrs
# MIA PaCa-2 = experiment: Cytotoxicity against human MIA PaCa-2 cells assessed as reduction in cell viability incubated for 48 hrs by MTS assay; assay type: functional, cell-based; conditions: MIA PaCa-2, time 48 hrs
# PC-3 = experiment: Cytotoxicity against human PC-3 cells assessed as reduction in cell viability incubated for 48 hrs by MTS assay; assay type: functional, cell-based; conditions: PC-3, time 48 hrs
# BT-474 = experiment: Cytotoxicity against human BT-474 cells assessed as reduction in cell viability incubated for 48 hrs by MTS assay; assay type: functional, cell-based; conditions: BT-474, time 48 hrs
# KB = experiment: Cytotoxicity against human KB cells assessed as inhibition of cell growth by measuring effective dose; assay type: functional; conditions: read-out: ED50 (the source's name)
structure (smiles),measurement,setting,value
CCCCCCCCCCCCCCCCCCOCC(COC(=O)NCCCO[C@@H]1O[C@H](CO)[C@H](O)[C@H](O)[C@H]1O)OCC (some centres not stated),pIC50,K562,4.77
CO[C@@H]1[C@H](O[C@@H]2CO[C@@H](O[C@@H]3[C@@H](O)[C@H](O)CO[C@H]3N3C(=O)/C(=C(O)/C=C/C=C/C=C/C=C/C=C(Cl)/C=C/C=C/C=C/[C@@H]4O[C@H](C)C[C@@H]4Cl)C(=O)[C@@H]3CC(N)=O)[C@@H](O)[C@@H]2O)O[C@H](C)[C@H]1O,IC50,P388,0.2 µg/mL
CO[C@@H]1[C@@H](OC(N)=O)[C@@H](OC)[C@H](O[C@@H]2C[C@H]3O[C@@](O)(C2)[C@H](C)C(=O)O[C@@H](/C=C/C=C/Br)C/C(C)=C/C(=O)C3(C)C)O[C@H]1C,IC50,HeLa S3,1.2 µg/mL
CO[C@@H]1[C@H](O[C@@H]2CO[C@@H](O[C@@H]3[C@@H](O)[C@H](O)CO[C@H]3N3C(=O)/C(=C(O)/C=C/C=C/C=C/C=C/C=C(Cl)/C=C/C=C/[C@@H]4O[C@H](C)C[C@@H]4Cl)C(=O)[C@@H]3CC(N)=O)[C@@H](O)[C@@H]2O)O[C@H](C)[C@H]1O,IC50,P388,0.05 µg/mL
CCCCCCCCCCCCC(=O)OCc1cn(C[C@H]2O[C@H](OC)[C@H](O)[C@@H](O)[C@@H]2O)nn1,pIC50,A549,4.68
CCCCCCCCCCCCCCCCCCOCC(CO[C@@H]1O[C@H](CO)[C@H](O)[C@H](O)[C@H]1O)OCC (some centres not stated),pIC50,K562,5.60
CO[C@@H]1[C@@H](O)[C@@H](OC)[C@H](O[C@@H]2[C@@H](OC)[C@H](C)O[C@@H](O[C@@H]3C[C@H]4O[C@@](O)(C3)[C@H](C)C(=O)O[C@@H](/C=C/C=C/Br)C/C(C)=C/C(=O)C4(C)C)[C@@H]2OC)O[C@H]1C,IC50,HeLa S3,0.17 µg/mL
CCCCCCCCCCCCCCCCCCOCC(COC(=O)NCCCO[C@@H]1O[C@H](CO)[C@@H](O[C@@H]2O[C@H](CO)[C@H](O)[C@H](O)[C@H]2O)[C@H](O)[C@H]1O)OCC (some centres not stated),pIC50,K562,5.15
CO[C@@H]1[C@H](O[C@@H]2CO[C@@H](O[C@@H]3[C@@H](O)[C@H](O)CO[C@H]3N3C(=O)/C(=C(O)/C=C/C=C/C=C/C=C/C=C(Cl)/C=C/C=C/[C@H]4O[C@H](C)C[C@@H]4Cl)C(=O)[C@@H]3CC(N)=O)[C@@H](O)[C@@H]2O)O[C@H](C)[C@H]1O,IC50,P388,0.2 µg/mL
C[C@@H]1C[C@H](Cl)[C@H](/C=C/C=C/C=C/C(Cl)=C/C=C/C=C/C=C/C=C/C(O)=C2\C(=O)[C@H](CC(N)=O)N([C@@H]3OC[C@@H](O)[C@H](O)[C@H]3O[C@@H]3OC[C@@H](O[C@@H]4O[C@H](C)[C@@H](O)[C@@H]4O)[C@@H](O)[C@@H]3O)C2=O)O1,IC50,P388,> 5 µg/mL
CCCCCCCCCCCCCCCCOC[C@H](CN)O[C@@H]1O[C@@H](C)[C@H](O)[C@@H](O)[C@H]1O,CC50,DU-145,8.2 µM
same,CC50,JIMT-1,5.5 µM
same,CC50,MIA PaCa-2,8.5 µM
same,CC50,PC-3,11 µM
CCCCCCCCCCCCCCCCCCOCC(CO[C@H]1O[C@H](CO)[C@@H](O)[C@H](O)[C@@H]1O)OCC (some centres not stated),pIC50,K562,5.52
C[C@@H]1C[C@H](Cl)[C@@H](/C(Cl)=C/C=C/C(Cl)=C/C=C/C=C/C=C/C=C/C(O)=C2\C(=O)[C@H](CC(N)=O)N([C@@H]3OC[C@@H](O)[C@H](O)[C@H]3O[C@@H]3OC[C@@H](O[C@@H]4O[C@H](C)[C@@H](O)[C@@H]4O)[C@@H](O)[C@@H]3O)C2=O)O1,IC50,P388,0.2 µg/mL
CCCCCCCCCCCCCCCCOC[C@H](CO[C@@H]1O[C@@H](CO)[C@H](O)[C@@H](O)[C@@H]1O)OC,CC50,DU-145,12.5 µM
same,CC50,JIMT-1,6.5 µM
same,CC50,MIA PaCa-2,7.5 µM
same,CC50,PC-3,12.5 µM
same,CC50,BT-474,11 µM
CCCCCCCCCCCC(=O)OCc1cn(C[C@H]2O[C@H](OC)[C@H](O)[C@@H](O)[C@@H]2O)nn1,pIC50,A549,4.68
CCCCCCCCCCCCCCCCCCOCC(COC(=O)NCCCO[C@H]1O[C@H](CO)[C@@H](O)[C@H](O)[C@@H]1O)OCC (some centres not stated),pIC50,K562,4.74
CO[C@@H]1[C@H](O[C@@H]2CO[C@@H](O[C@@H]3[C@@H](O)[C@H](O)CO[C@H]3N3C(=O)/C(=C(O)/C=C/C=C/C=C/C=C/C=C(Cl)/C=C/C=C(\Cl)[C@H]4O[C@H](C)C[C@@H]4Cl)C(=O)[C@@H]3CC(N)=O)[C@@H](O)[C@@H]2O)O[C@H](C)[C@H]1O,IC50,P388,0.2 µg/mL
CCCCCCCCCCCCCCCCCCOCC(CO[C@@H]1O[C@H](CO)[C@@H](O[C@@H]2O[C@H](CO)[C@H](O)[C@H](O)[C@H]2O)[C@H](O)[C@H]1O)OCC (some centres not stated),pIC50,K562,4.74
C/C=C(\C)C(=O)O[C@H]1[C@H](O)[C@@H](O)[C@H](O[C@@H]2[C@H]3OC(=O)CCCCCCCCC[C@H](CCCCC)O[C@@H]4O[C@H](C)[C@@H](O)[C@H](O)[C@H]4O[C@@H]4O[C@H](COC(=O)[C@@H](C)[C@H](C)O)[C@@H](O)[C@H](O)[C@H]4O[C@H](O[C@H]2C)[C@@H]3OC(=O)C(C)C)O[C@@H]1C [ORIZABIN XIII],EC50,KB,1 µg/mL
C/C=C(\C)C(=O)O[C@H]1[C@H](O)[C@@H](O)[C@H](O[C@@H]2[C@H]3OC(=O)CCCCCCCCC[C@H](CCCCC)O[C@@H]4O[C@H](C)[C@@H](O)[C@H](O)[C@H]4O[C@@H]4O[C@H](COC(=O)[C@H](C)[C@@H](C)O)[C@@H](O)[C@H](O)[C@H]4O[C@H](O[C@H]2C)[C@@H]3OC(=O)C(C)C)O[C@@H]1C [ORIZABIN XII],EC50,KB,1 µg/mL
C/C=C(\C)C(=O)O[C@H]1[C@H](O)[C@@H](O)[C@H](O[C@@H]2[C@H]3OC(=O)CCCCCCCCC[C@H](CCCCC)O[C@@H]4O[C@H](C)[C@@H](O)[C@H](O)[C@H]4O[C@@H]4O[C@H](COC(=O)[C@@H](C)CC)[C@@H](O)[C@H](O)[C@H]4O[C@H](O[C@H]2C)[C@@H]3OC(=O)[C@H](C)[C@@H](C)O)O[C@@H]1C [ORIZABIN XIV],EC50,KB,1 µg/mL
CCCCC[C@H]1CCCCCCCCCC(=O)O[C@@H]2[C@@H](O[C@@H]3O[C@H](C)[C@@H](OC(=O)[C@@H](C)CC)[C@H](O)[C@H]3O)[C@H](C)O[C@@H](O[C@H]3[C@H](O[C@H]4[C@H](O1)O[C@H](C)[C@@H](O)[C@@H]4O)O[C@H](COC(=O)[C@@H](C)CC)[C@@H](O)[C@@H]3O)[C@@H]2OC(=O)[C@@H](C)[C@H](C)O [ORIZABIN XIX],EC50,KB,1 µg/mL
C/C=C(\C)C(=O)O[C@H]1[C@H](O)[C@@H](O)[C@H](O[C@@H]2[C@H]3OC(=O)CCCCCCCCC[C@H](CCCCC)O[C@@H]4O[C@H](C)[C@@H](O)[C@H](O)[C@H]4O[C@@H]4O[C@H](COC(=O)C(C)C)[C@@H](O)[C@H](O)[C@H]4O[C@H](O[C@H]2C)[C@@H]3OC(=O)[C@@H](C)[C@H](C)O)O[C@@H]1C [ORIZABIN XI],EC50,KB,1 µg/mL
CCCCC[C@H]1CCCCCCCCCC(=O)O[C@@H]2[C@@H](O[C@@H]3O[C@H](C)[C@@H](OC(=O)[C@@H](C)CC)[C@H](O)[C@H]3O)[C@H](C)O[C@@H](O[C@H]3[C@H](O[C@H]4[C@H](O1)O[C@H](C)[C@@H](O)[C@@H]4O)O[C@H](COC(=O)[C@@H](C)CC)[C@@H](O)[C@@H]3O)[C@@H]2OC(=O)[C@H](C)[C@@H](C)O [ORIZABIN XVIII],EC50,KB,1 µg/mL
C/C=C(\C)C(=O)O[C@H]1[C@H](O)[C@@H](O)[C@H](O[C@@H]2[C@H]3OC(=O)CCCCCCCCC[C@H](CCCCC)O[C@@H]4O[C@H](C)[C@@H](O)[C@H](O)[C@H]4O[C@@H]4O[C@H](COC(=O)[C@@H](C)[C@H](C)O)[C@@H](O)[C@H](O)[C@H]4O[C@H](O[C@H]2C)[C@@H]3OC(=O)[C@@H](C)CC)O[C@@H]1C [ORIZABIN XVII],EC50,KB,1 µg/mL
C/C=C(\C)C(=O)O[C@H]1[C@H](O)[C@@H](O)[C@H](O[C@@H]2[C@H]3OC(=O)CCCCCCCCC[C@H](CCCCC)O[C@@H]4O[C@H](C)[C@@H](O)[C@H](O)[C@H]4O[C@@H]4O[C@H](COC(=O)[C@H](C)[C@@H](C)O)[C@@H](O)[C@H](O)[C@H]4O[C@H](O[C@H]2C)[C@@H]3OC(=O)[C@@H](C)CC)O[C@@H]1C [ORIZABIN XVI],EC50,KB,1 µg/mL
C/C=C(\C)C(=O)O[C@H]1[C@H](O)[C@@H](O)[C@H](O[C@@H]2[C@H]3OC(=O)CCCCCCCCC[C@H](CCCCC)O[C@@H]4O[C@H](C)[C@@H](O)[C@H](O)[C@H]4O[C@@H]4O[C@H](COC(=O)[C@@H](C)CC)[C@@H](O)[C@H](O)[C@H]4O[C@H](O[C@H]2C)[C@@H]3OC(=O)[C@@H](C)[C@H](C)O)O[C@@H]1C [ORIZABIN XV],EC50,KB,1 µg/mL
CCCCC[C@H]1CCCCCCCCCC(=O)O[C@@H]2[C@@H](O[C@@H]3O[C@H](C)[C@@H](OC(=O)[C@@H](C)CC)[C@H](O)[C@H]3O)[C@H](C)O[C@@H](O[C@H]3[C@H](O[C@H]4[C@H](O1)O[C@H](C)[C@@H](O)[C@@H]4O)O[C@H](COC(=O)[C@@H](C)[C@H](C)O)[C@@H](O)[C@@H]3O)[C@@H]2OC(=O)[C@@H](C)CC [ORIZABIN XXI],EC50,KB,1 µg/mL
CCCCC[C@H]1CCCCCCCCCC(=O)O[C@@H]2[C@@H](O[C@@H]3O[C@H](C)[C@@H](OC(=O)[C@@H](C)CC)[C@H](O)[C@H]3O)[C@H](C)O[C@@H](O[C@H]3[C@H](O[C@H]4[C@H](O1)O[C@H](C)[C@@H](O)[C@@H]4O)O[C@H](COC(=O)[C@H](C)[C@@H](C)O)[C@@H](O)[C@@H]3O)[C@@H]2OC(=O)[C@@H](C)CC [ORIZABIN XX],EC50,KB,1 µg/mL
C/C=C(\C)C(=O)O[C@H]1[C@H](O)[C@@H](O)[C@H](O[C@@H]2[C@H]3OC(=O)CCCCCCCCC[C@H](CCCCC)O[C@@H]4O[C@H](C)[C@@H](O)[C@H](O)[C@H]4O[C@@H]4O[C@H](COC(=O)C(C)C)[C@@H](O)[C@H](O)[C@H]4O[C@H](O[C@H]2C)[C@@H]3OC(=O)[C@H](C)[C@@H](C)O)O[C@@H]1C [ORIZABIN X],EC50,KB,1 µg/mL
